What all share (experiment): relative viability (nuclei count vs DMSO), 5 days (fraction); higher = more cells survive
Compound in assay [1]: C1=CC2=C(C=C(C(=C2N=C1)O)N=NC3=CC4=C(C=C3)C=C(C=C4)S(=O)(=O)O)S(=O)(=O)O + C[C@]1(O)C[C@@H](c2nc(-c3ccc4ccc(-c5ccccc5)nc4c3)c3c(N)nccn32)C1 [Linsitinib] (partner 1 µM)
In outline: (§1)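 Five library-drug doses in √10 steps were combined with a fixed anchor-drug dose, or a single drug was given alone, by pin tool to lung cancer cell lines in 1536-well plates the day after seeding. Nuclei were stained and counted after 5 days. Relative viability is the nuclei count in treated wells over that in vehicle wells, taken as the median of duplicate plates.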

Compound in assay [2]: C1=CC2=C(C=C(C(=C2N=C1)O)N=NC3=CC4=C(C=C3)C=C(C=C4)S(=O)(=O)O)S(=O)(=O)O + O=C(c1cc(Cc2n[nH]c(=O)c3ccccc23)ccc1F)N1CCN(C(=O)C2CC2)CC1 [Olaparib] (partner 8 µM)
In outline: as §1

Compound in the assay “AT-7519 + Trametinib”: O=C(NC1CCNCC1)c1n[nH]cc1NC(=O)c1c(Cl)cccc1Cl [AT-7519] + CC(=O)Nc1cccc(-n2c(=O)n(C3CC3)c(=O)c3c(Nc4ccc(I)cc4F)n(C)c(=O)c(C)c32)c1 [Trametinib] (partner 0.02 µM)
In outline: as §1

Compound in the assay “AT-7519 + Phenformin”: O=C(NC1CCNCC1)c1n[nH]cc1NC(=O)c1c(Cl)cccc1Cl [AT-7519] + N=C(N)NC(=N)NCCc1ccccc1 [Phenformin] (partner 250 µM)
In outline: as §1

For the cell line UMC-11, the relative viability in assay [1] (first compound 0.08 µM) stood at 1.11; in assay [1] (first compound 0.253 µM), 0.943; in assay [1] (first compound 0.8 µM) it was 1.03; in assay [1] (first compound 2.53 µM), 1.02; in assay [1] (first compound 8 µM), 0.944; in assay [2] (first compound 0.08 µM), 0.36. The relative viability is 0.381 in assay [2] (first compound 0.253 µM); 0.34 in assay [2] (first compound 0.8 µM); 0.376 in assay [2] (first compound 2.53 µM); 0.317 in assay [2] (first compound 8 µM); 0.593 with AT-7519 + Trametinib (first compound 0.01 µM); 0.647 in the assay with AT-7519 + Trametinib (first compound 0.03162 µM). The relative viability came to 0.498 with AT-7519 + Trametinib (first compound 0.3162 µM); 0.384 with AT-7519 + Trametinib (first compound 1 µM); 0.319 with AT-7519 + Phenformin (first compound 0.01 µM); 0.339 in the assay with AT-7519 + Phenformin (first compound 0.03162 µM); 0.308 with AT-7519 + Phenformin (first compound 0.3162 µM); 0.237 with AT-7519 + Phenformin (first compound 1 µM).
